Reference: patent US20030078278A1, “Spiropiperidine compounds as ligands for ORL-1 receptor” (Pfizer Inc., priority 2001, published 2003)

What was measured:
[1] = biological target: T1, human ORL1 receptor (Homo sapiens, UniProt P41146); experiment: ORL1-Receptor Binding Assay ([3H]nociceptin, SPA)
T1 construct: expressed in transfected cells; host or cells: HEK-293
Procedure: ORL1-Receptor Binding Assay:
The human ORL1 receptor transfected HEK-293 cell membranes were incubated for 45 min at 22° C. with 0.4 nM [^3H]nociceptin, 1.0 mg of wheat germ agglutinin-coated SPA beads and various concentrations of test compounds in a final volume of 200 μl of 50 mM HEPES buffer pH 7.4 containing 10 mM MgCl2 and 1 mM EDTA. Non-specific binding was determined by the addition of 1 μM unlabeled nociceptin. After the reaction, the assay plate was centrifuged at 1,000 rpm for 1 min and then the radioactivity was measured by a Liquid Scintillation Counter.
(§1) Each percent […] binding thus obtained is graphed as a function of compound concentration. A sigmoidal curve is used to determine 50% bindings (i.e., IC50 values).

[2] = biological target: T2, human Mu receptor (Homo sapiens, UniProt P35372); experiment: μ-Receptor Binding Assay ([3H]DAMGO, SPA); settings: human Mu receptor transfected CHO-K1 cell membranes, 1.0 nM [3H]DAMGO
T2 construct: expressed in transfected cells; host or cells: CHO-K1
T2 sequence (P35372 whole entry): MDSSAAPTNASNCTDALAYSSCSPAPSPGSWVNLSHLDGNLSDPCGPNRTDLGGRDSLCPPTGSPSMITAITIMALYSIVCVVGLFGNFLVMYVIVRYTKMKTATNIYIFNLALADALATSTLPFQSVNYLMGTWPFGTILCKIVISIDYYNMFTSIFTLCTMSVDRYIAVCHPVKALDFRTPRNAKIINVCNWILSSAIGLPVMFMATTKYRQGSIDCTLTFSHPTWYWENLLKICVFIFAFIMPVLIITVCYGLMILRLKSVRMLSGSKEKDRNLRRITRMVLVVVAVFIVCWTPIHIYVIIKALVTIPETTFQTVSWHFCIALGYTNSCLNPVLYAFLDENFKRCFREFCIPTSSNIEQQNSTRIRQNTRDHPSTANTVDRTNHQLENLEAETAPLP
Procedure: μ-Receptor Binding Assay:
The human Mu receptor transfected CHO-K1 cell membranes were incubated for 45 min at 22° C. with 1.0 nM [^3H]DAMGO, 1.0 mg of wheat germ agglutinin-coated SPA beads and various concentrations of test compounds in a final volume of 200 μl of 50 mM Tris-HCl buffer pH 7.4 containing 5 mM MgCl2. Non-specific binding was determined by the addition of 1 μM unlabeled DAMGO. After the reaction, the assay plate was centrifuged at 1,000 rpm for 1 min and then the radioactivity was measured by a Liquid Scintillation Counter.
as §1

T1 sequence (P41146 whole entry): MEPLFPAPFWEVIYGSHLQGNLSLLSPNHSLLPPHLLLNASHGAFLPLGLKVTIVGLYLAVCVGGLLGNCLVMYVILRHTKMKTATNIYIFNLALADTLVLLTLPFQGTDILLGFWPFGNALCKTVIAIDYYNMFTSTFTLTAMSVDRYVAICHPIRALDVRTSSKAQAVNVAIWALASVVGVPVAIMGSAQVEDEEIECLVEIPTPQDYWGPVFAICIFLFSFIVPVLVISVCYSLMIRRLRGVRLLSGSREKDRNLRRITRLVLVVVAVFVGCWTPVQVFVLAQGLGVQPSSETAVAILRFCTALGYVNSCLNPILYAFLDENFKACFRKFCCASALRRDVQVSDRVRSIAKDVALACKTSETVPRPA

## O=c1oc2ccccc2n1CCCN1CCC2(CCc3ccccc32)CC1 [Example 9, 2,3-Dihydro-1′-[3-(2-oxo-1,3-benzoxazol-3(2H)-yl)propyl]spiro[1H-indene-1,4′-piperidine]]
[1]
  IC50: 89 nM
[1]; comparison of ORL1 and mu binding assays
  selectivity of binding affinity, ORL-1 receptor versus mu-receptor (in words): selective affinity for ORL-1 receptor over mu-receptor
[2]
  IC50: 871 nM
